Source: the METLIN SMRT retention time set (Domingo-Almenara et al. 2019)

Assay: gradient 5% acetonitrile 3 min, to 50% in 2 min, to 85% in 15 min, held 3 min, 100 µL/min
Details: column: Zorbax Extend-C18 2.1 x 50 mm; eluents: water / acetonitrile, 0.1% formic acid
Summary of the method: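 Mixtures of ~100 pure standards were chromatographed on a Zorbax Extend-C18 column (2.1 × 50 mm, 1.8 μm) at 100 μL/min using water and acetonitrile, each with 0.1% formic acid. Detection used a quadrupole time-of-flight mass spectrometer in positive and negative ionization mode, and data collection spanned 3 months. Retention time was obtained from adduct peaks picked computationally and each checked manually.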

Compound | RP-LC retention time [s]
CNC(=O)c1c(NC(=O)COc2ccc(Cl)cc2)sc2c1CCC2 | 1100
Cc1ccc(-c2noc(-c3ccccc3S(=O)(=O)N3CCCCC3)n2)cc1 | 1210
Cc1ccc(N2CCC(NC(=O)NC(C)(C)C)C2=O)cc1 (configuration not stated) | 761
CN(C)c1ccc(Nc2nc(-c3ccc(O)cc3O)cs2)cc1 | 850
O[C@@H]1C[C@@H](c2nnc3n2CCN(Cc2ccccn2)C3)N(Cc2ccccc2)C1 | 537
O=C(Cc1cccs1)Nc1ccc(Nc2ccc(-n3cccn3)nn2)cc1 | 708
CC1=C(c2ccccc2)S(=O)(=O)N=C1N1CCCN(C(=O)c2cccs2)CC1 | 770
CCc1cc(=O)n(CC(=O)Nc2cccc(F)c2)c(N2CCOCC2)n1 | 763
COc1ccc(CN2CCC[C@H]2c2nc(C3CCOCC3)n[nH]2)c(Cl)c1OC | 584
Cc1cc(C)c(S(=O)(=O)N(Cc2ccsc2)Cc2ccccn2)c(C)c1 | 1030
Cc1nnc(-c2ccc3ccn(CC(=O)Nc4cccc(CN5CCCC5)c4)c3c2)o1 | 610
O=C(Cn1nc2c(cc1=O)CCCC2)Nc1ccc(N2CCCCS2(=O)=O)cc1 | 720
O=C(Nc1cccc(F)c1)C1CCCN(c2nc3ccsc3c(=O)n2Cc2ccc(F)cc2)C1 (configuration not stated) | 1050
Cc1nnc2ccc(NC(=O)Nc3cccc(F)c3)cn12 | 677
CC1(C(=O)NCc2ccc(F)cc2)Cn2cnc(C(=O)NC3CCCCCC3)c2C(=O)N1C1CC1 (configuration not stated) | 823
COC(=O)N(C)c1c(N)nc(-c2nn(Cc3ccccc3F)c3ncccc23)nc1N | 729
Cn1cnc2ccc(-c3noc(CNC(=O)c4ccccc4)n3)cc21 | 624
NS(=O)(=O)c1ccc(NC(=O)C2(c3cc(-c4ccco4)on3)CC2)cc1 | 745
COc1ccccc1NC(=O)Nc1c(C)nc2ccc(C)cn2c1=O | 616

Compound | RP-LC retention time [s]
COc1cccc(C(=O)NC2CCN(c3ccc(C)c(C)c3)C2=O)c1 (configuration not stated) | 869
O=C(Nc1cccc(F)c1)N1CCC2(C1)C(=O)Nc1ccccc12 (configuration not stated) | 730
O=C(NCc1csc(C2CCN(C(=O)c3ccc(F)cc3F)CC2)n1)C1CC1 | 697
CCCN1C(=O)c2c(C(=O)NCCc3ccccc3)ncn2CC1(C)C(=O)NCCC(C)C (configuration not stated) | 891
CCN(CC)CCNC(=O)COc1ccc(Cl)cc1 | 694
O=C(Nc1ccc2c(c1)OCCO2)N1CCCC1c1nc(CCOCC2CCCC2)no1 (configuration not stated) | 896
CCC(C)NC(=O)C1CCN(c2cncnc2N2CCCC2)CC1 (configuration not stated) | 608
Cc1ccc(C(=O)N2CCN(c3ccc(=O)n(-c4ccc(Cl)cc4)n3)CC2)s1 | 885
CCN1C(=O)c2c(C(=O)NCc3ccccc3Cl)ncn2CC1(C)C(=O)NC1CCCC1 (configuration not stated) | 779
CCCn1ccc2oc(C)c(C(=O)NCc3ccc(CC)cc3)c2c1=O | 1170
CC(C)CCNC(=O)C1(C)CCC(=O)N1CCc1c[nH]c2ccccc12 (configuration not stated) | 786
O=C(NCCCN1CCCC1)c1ccc(-c2ccc(NCc3ccccc3)nn2)cc1 | 586
Cc1cccn2c(Nc3ccc4c(c3)OCCO4)c(-c3ccccc3O)nc12 | 719
Cc1noc(C)c1CC(=O)N1CC(c2nc(-c3cccs3)no2)C1 | 690
Cn1cccc1-c1cc2n(n1)CCC(=O)N2CCCC(=O)NCc1cccc(Cl)c1 | 804
COc1ccccc1-c1nc2cnccn2c1NCCC(=O)N(C)C | 596
CCCCc1ccc(NC(=O)NC2CCN(c3cc(N4CCCC4)cnn3)C2)cc1 (configuration not stated) | 814
Cn1c(=O)c2c(nc(N3CCCCC3)n2C)n(C)c1=O | 794
